# Assay results: patent US20250235501A1, “Methods and Compositions for Treating or Preventing Neurological Injury or Neurological Disorders” (University of Connecticut, priority 2024, published 2025)
# What was measured:
# [1] = test system: NMDARs (GluN1a, GluN2a, GluN2b); assay: Surface expression of NMDARs in HEK293T cells co-transfected with NMDARs and TRPM2 (WB); type: cell-based, human; details: 1 μM compound overnight
# Experimental: FIGS. 4K-4N show the surface expression of NMDARs in HEK-293T cells co-transfected with TRPM2 or EGFP with the treatment of PKC activator PMA (FIG. 4K) and inhibitor Stausporine (FIG. 4L). Membrane (Mem) and cytocol (Cyto) NMDARs were analyzed and averaged from 3 independent experiments with 1 μM PMA treatment (FIG. 4N) or 1 μM Stausporine treatment (FIG. 4L) for overnight. Pan-cadherin and β-tubulin were loading controls for membrane and cytosol protein, respectively (*, p<0.05, **, p<0.01, ***, p<0.001, unpaired t-test, mean±SEM, n=3/group).
# FIGS. 5C-5F effects of TAT-EE3 on surface expression of NMDARs. HEK293T cells co-transfected with NMDARs with TRPM2 (+M2) or EGFP vector (Con) were treated with 10 μM TAT-SC (FIG. 5C) or TAT-EE3 (FIG. 5D) overnight. Membrane (Mem) and cytosol (Cyto) proteins of NMDARs in TAT-SC (FIG. 5E) and TAT-EE3 (FIG. 5F) treated groups were assessed by WBs and analyzed in reference to Pan-cadherin or β-tubulin (**, p<0.01, ***, p<0.001, unpaired t-test, mean±SEM). All the results were replicated in at least 3 independent experiments.
# Pan-cadherin and β-tubulin were used as loading control for membrane and cytosolic protein extraction.
# were ordered from GenScript Biotech, and dissolved in PBS to make a stock concentration at 10 mM. HEK-293T cells or isolated neurons were treated with TAT-SC or TAT-EE3 at a concentration of 10 μM for at least 8 h prior to use. Mice were injected with TAT-SC or TAT-EE3 intraperitoneally (ip) at a dose of 100 nmol/kg.
# HEK293T cells were cultured in Dulbecco's Modified Eagle's medium (DMEM) (Thermal Fisher Scientific, 12100-038) supplemented with 10% BGS (HyClone, SH30541.03) and 0.5% penicillin/streptomycin (Thermal Fisher Scientific, 15140-122) at 37° C. and 5% CO2. 8 h prior to transfection, culture medium was replaced with DMEM supplemented only with 2.5% BGS. Cells were transfected when at a confluence about 80-90% using Lipofectamine® 3000 Transfection Kit (Thermal Fisher Scientific, 2232162) based on instruction.
# NP-40/Triton lysis buffer ([…], 1% Triton™ X-100, 150 mM NaCl, 1 mM EDTA, 50 mM Tris, pH=8.0) containing proteinase inhibitors and phosphatase inhibitors was used to lyse both cultured cells and frozen brain tissue. Surface protein was extracted using Pierce® Cell Surface Protein Isolation Kit (Thermal Fisher Scientific, 89881) in transfected HEK-293T cells, and using ProteoExtract™ Native Membrane Protein Extraction Kit (Calbiochem, 444810) in brain tissue based on instructions. […] Protein concentration was measured using Pierce™ Rapid Gold BCA Protein Assay Kit.
# 30-50 μg of total protein was loaded and separated proteins were transferred to Nitrocellulose membranes. […] Band intensity was quantified using ImageJ software and normalized with appropriate loading controls.
# NMDARs = assay: NMDAR currents in cultured cortical neurons of WT and TRPM2-KO mice (whole cell recording); type: cell-based, mouse; details: for NMDAR current amplitude in WT neurons: 1 μM compound overnight, 10 μM NMDA, -80 mV, compared with TRPM2-KO neurons
# Experimental: FIGS. 4O and 4P show the effects of stausporine on NMDAR currents recorded from cortical neurons cultured for 14 days. FIG. 4O show representative NMDAR currents elicited at −80 mV by 10 μM NMDA in WT and TRPM2-KO (gM2KO) neurons treated with or without Stausporine at 1 μM for overnight. FIG. 4P show the average current amplitude (ns, p>0.05; **, p<0.01; ANOVA, Bonferroni's test; mean±SEM, n=11, 10, 10, 12 neurons from 2 mice respectively).
# FIG. 4S show representative NMDAR currents elicited by NMDA in WT and TRPM2-KO neurons treated with or without endosidin2 at 1 μM for overnight.
# FIGS. 5I-5K show the effects of TAT-EE3 on PKC induced changes of NMDAR currents recorded in cortical neurons of WT and TRPM2-KO. Neurons were incubated with 10 μM TAT-SC or TAT-EE3 for overnight before current recording. FIG. 5I show representative NMDAR currents elicited by 10 μM NMDA at −80 mV before and after PMA (1 μM) perfusion for 20 s. TAT-SC or TAT-EE3 10 μM was included in the pipette solution for current recording.
# FIGS. 6A and 6B show the effects of TAT-EE3 on NMDAR currents in WT and gM2KO cortical neurons cultured for 14 days. […] TAT-SC or TAT-EE3 10 μM was included in the pipette solution during current recording.
# Mice pups at P0 were euthanized based on animal protocol. Whole brain was dissected out immediately and immersed in ice-cold Hank's Balanced Salt Solution (HBSS). Meninges were removed thoroughly, and tissue of different brain areas was taken based on purposes. Brain tissue was cut into small pieces and digested with 0.25% trypsin (Thermal Fisher Scientific, 15090-046) in HBSS at 37° C. for 20 min. Digestion solution was quickly removed, and tissue pellets are washed with Neurobasal® Medium (Thermal Fisher Scientific, 21103-049) for 3 times. Cells were resuspended with appropriate amount of Neurobasal® Medium supplemented with 2% B27® supplement (Thermal Fisher Scientific, 17504-044), 3% horse serum (Thermal Fisher Scientific, 16050114), 0.25% L-glutamine (Thermal Fisher Scientific, 25030-081) and 1% penicillin/streptomycin (Thermal Fisher Scientific, 15140-122). Isolated cells were counted and plated on coverslips pre-coated with poly-L-lysine (Sigma-Aldrich, P4707) at a density about 500×10^3 cells/cm2 for OGD and H2O2 treatment, and 100×10^3 cells/cm2 for current recording. Cytosine arabinoside (Sigma-Aldrich, C1768) was added to maintain a concentration at 1 μM to inhibit the proliferation of non-neuronal cells. 24 h after plating, culture medium was changed to Neurobasal® Medium supplemented with 2% B27® supplement, 0.25% L-glutamine and 1% penicillin/streptomycin. The concentration of Cytosine arabinoside (araC) was increased to 2 μM. Medium was changed every 3 days. OGD and H2O2 treatment was conducted at 7th day of culture, and current recording was conducted at 7th, 10th and 14th day of culture.
# Whole cell currents were recorded using an Axopatch 200B amplifier. Data were digitized at 10 or 20 kHz and digitally filtered offline at 1 kHz. Patch electrodes were pulled from borosilicate glass and fire-polished to a resistance of ˜3 MΩ when filled with internal solutions. Series resistance (Rs) was compensated up to 90% to reduce series resistance errors to <5 mV. Cells in which Rs was >10 MΩ were discarded (Du, J., Xie, J., and Yue, L. (2009). Modulation of TRPM2 by acidic pH and the underlying mechanisms for pH sensitivity. J Gen Physiol 134, 471-88).
# For heterologous expression, transfected HEK-293 cells were identified by GFP fluorescence. TRPM2 current recording in transfected HEK-293T cells was performed as we previously reported (Du, J., Xie, J., and Yue, L. (2009). Intracellular calcium activates TRPM2 and its alternative spliced isoforms. Proceedings of the National Academy of Sciences 107, 7239-44; Du, J., Xie, J., and Yue, L. (2009). Modulation of TRPM2 by acidic pH and the underlying mechanisms for pH sensitivity. J Gen Physiol 134, 471-88). […]
smiles,measurement,setting,value
"COc1cc(/C=N/NC(=O)c2cccc(F)c2)cc(I)c1O [Endosidin 2, reference compound]",surface expression level of NMDARs in cells transfected with NMDARs and TRPM2,[1],prevented the increase
same,NMDAR current amplitude in WT neurons,NMDARs,abolished the increased current amplitude
"CCCCCCCCCCCCCC(=O)O[C@@H]1[C@@H](C)[C@@]2(O)[C@@H](C=C(CO)C[C@]3(O)C(=O)C(C)=C[C@@H]23)[C@@H]2C(C)(C)[C@]12OC(C)=O [PMA, Phorbol-12-myristate-13-acetate, reference compound]",surface expression level of NMDARs in cells transfected with NMDARs and TRPM2,[1],much higher level of surface NMDARs
same,increase of NMDA-induced current by PMA,"NMDARs; WT neurons, PMA 1 μM perfusion for 20 s",about 1.5 fold
same,NMDA-induced current after PMA perfusion,"NMDARs; WT neurons, PMA 1 μM perfusion for 20 s, before PMA 1542.1±117.1 pA",3642.1±180.8 pA
"CN[C@@H]1C[C@H]2O[C@@](C)([C@@H]1OC)n1c3ccccc3c3c4c(c5c6ccccc6n2c5c31)C(=O)NC4 [stausporine, reference compound]",surface expression level of NMDARs in cells transfected with NMDARs and TRPM2,[1],abolished the enhanced surface expression level
same,NMDAR current amplitude in WT neurons,NMDARs,normalized NMDAR current amplitude in the WT neuron to the similar amplitude level of NMDAR current in TRPM2-KO neurons
